Measurements published in publication PMC10846046, “The mechanism of action of auranofin analogs in B. cenocepacia revealed by chemogenomic profiling” (Microbiology Spectrum, 2024).

Legend:
[1] = target: T1, TrxB (thioredoxin reductase) (Burkholderia cenocepacia, UniProt B4EBR9); assay: DTNB reduction, absorbance at […] nm; assay type: biochemical
T1 construct: full gene in pET24b+, C-terminal 6xHis tag kept, E. coli BL21(DE3); Ni-NTA and size exclusion

[2] = target: T2, GOR (glutathione reductase) (Burkholderia cenocepacia, UniProt B4E8M8); assay: NADPH consumption, absorbance at […] nm; assay type: biochemical; details: GSSG as electron acceptor
T2 construct: full gene in pET-22+, C-terminal 6xHis tag kept, E. coli BL21(DE3)-Gold; purified as TrxB
T2 sequence (B4E8M8 1-451): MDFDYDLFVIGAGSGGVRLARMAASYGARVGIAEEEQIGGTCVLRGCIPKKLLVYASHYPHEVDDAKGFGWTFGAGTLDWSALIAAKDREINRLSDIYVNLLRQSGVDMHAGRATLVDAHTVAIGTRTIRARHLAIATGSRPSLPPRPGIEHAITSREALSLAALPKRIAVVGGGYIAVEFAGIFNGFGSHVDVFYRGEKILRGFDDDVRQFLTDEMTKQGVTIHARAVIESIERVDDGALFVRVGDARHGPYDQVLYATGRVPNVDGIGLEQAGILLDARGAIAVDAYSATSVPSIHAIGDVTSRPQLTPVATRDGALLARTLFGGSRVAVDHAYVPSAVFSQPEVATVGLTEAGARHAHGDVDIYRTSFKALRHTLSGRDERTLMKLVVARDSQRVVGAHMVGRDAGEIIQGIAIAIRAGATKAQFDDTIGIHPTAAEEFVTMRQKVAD

T1 sequence (B4EBR9 1-320): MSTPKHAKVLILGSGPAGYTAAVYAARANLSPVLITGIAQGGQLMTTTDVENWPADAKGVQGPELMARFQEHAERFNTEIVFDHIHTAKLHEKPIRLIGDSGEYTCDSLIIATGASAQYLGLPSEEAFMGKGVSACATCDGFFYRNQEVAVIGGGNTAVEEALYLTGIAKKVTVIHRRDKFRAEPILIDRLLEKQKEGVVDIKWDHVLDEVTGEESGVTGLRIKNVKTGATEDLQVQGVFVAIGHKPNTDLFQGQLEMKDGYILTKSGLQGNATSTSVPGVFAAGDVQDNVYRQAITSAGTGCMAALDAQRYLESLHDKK

Structure (SMILES) | DTNB reduction, absorbance at 412 nm ([1]; NADPH as electron source) | NADPH consumption, absorbance at 340 nm [2] | DTNB reduction, absorbance at 412 nm ([1]; DTNB as electron acceptor)
O=C(O)c1cc(SSc2ccc([N+](=O)[O-])c(C(=O)O)c2)ccc1[N+](=O)[O-] [DTNB] | in the presence of substrate DTNB is reduced to TNB, with NADPH as a source |  | 
NC(=O)C1=CN([C@@H]2O[C@H](COP(=O)(O)OP(=O)(O)OC[C@H]3O[C@@H](n4cnc5c(N)ncnc54)[C@H](OP(=O)(O)O)[C@@H]3O)[C@@H](O)[C@H]2O)C=CC1 [NADPH] |  | oxidized glutathione is reduced to reduced glutathione, with NADPH as a source of electrons | in the presence of substrate DTNB is reduced to TNB, with NADPH as a source
